Measured values taken from patent publication US20260198495A1, “BINARY INSECTICIDE COMPOSITION AND USE THEREOF” (SHENYANG SINOCHEM AGROCHEMICALS R & D CO., LTD., priority 2022, published 2026).
Values after ≈ are worked out from the molar mass of the structure shown.

What was measured:
Format in all cases: in vivo
[1] = system: Bemisia tabaci (Gennadius) nymphs; assay: Joint toxicity of I-72 + spiromesifen, Example 27, Table 27; settings: Bemisia tabaci; A = compound I-72, B = spiromesifen; cotton leaf-disk spraying; 96 hours; read-out: LC50
Protocol: Test target: Bemisia tabaci (Gennadius) nymphs, a sensitive strain reared indoors.
(§1) Preparation of the pesticide solution: according to different test requirements, the test samples were accurately weighed respectively with an electronic analytical balance. The technical pesticides were dissolved in acetone, and then diluted with 0.1% Tween 80 water into a series of pesticide solutions with a certain concentration gradient according to the experimental design dosage.
(§2) Experimental method: first, cotton leaves with neat and consistent Bemisia tabaci (Gennadius) nymphs were selected and made into leaf disks, with about 20 insects on each leaf disk. Then, they were evenly sprayed with the pesticide solution in the order from low dosage to high dosage according to the experimental design, with 1.5 mL for each leaf and 3 replicates for each treatment. In addition, a blank control was set up.
(§3) The treated test materials were placed in an observation room, and the temperature, humidity and illumination of the observation room could be adjusted as needed. The number of dead and live insects was investigated 96 hours later. […] Then, the co-toxicity coefficient of each ratio was calculated using the Sun Y-P method to evaluate the mixing effect (the same as in Example 1).

[2] = system: Unaspis yanonensis Kuwana nymphs; assay: whole plant or invertebrate; settings: foliar, A = compound I-72, B = spirotetramat, citrus leaf dipping, 120 hours, read-out: LC50
Protocol: Test target: Unaspis yanonensis Kuwana nymphs.
as §1
Experimental method: the activity of the mixture against Unaspis yanonensis Kuwana nymphs on citrus was determined by adopting the dipping method. First, the collected citrus leaves with Unaspis yanonensis Kuwana nymphs were treated with the pesticide solution in the order from low dosage to high dosage according to the experimental design. After air-drying, the petioles were kept moist with degreased cotton, and then the leaves were placed in a Petri dish, with 3 replicates for each treatment. In addition, a blank control was set up.
The treated test materials were placed in an observation room, and the temperature, humidity and illumination of the observation room could be adjusted as needed. The number of dead and live insects was investigated 120 hours later.

[3] = system: Nilaparvata lugens (Stal) nymphs; assay: Joint toxicity of I-72 + buprofezin, Example 52, Table 52; settings: A = compound I-72, B = buprofezin, potted-seedling spraying, 72 hours, read-out: LC50
Protocol: Test target: Nilaparvata lugens (Stal) nymphs, a sensitive strain reared indoors.
as §1
Experimental method: the activity of the mixture against the Nilaparvata lugens (Stal) nymphs was determined by adopting the potted-seedling spraying method. First, rice seedlings were planted in culture pots. Uniform spraying was performed with the pesticide solution in the order from low dosage to high dosage according to the experimental design, with 2 mL for each seedling. Then, Nilaparvata lugens nymphs of uniform size were transferred onto the rice seedlings, with 3 replicates for each treatment. In addition, a blank control was set up.
as §3, with “72” for “96”, “effect,” for “effect (the same”, “1.” for “1).”

[4] = system: 2nd-instar larvae of Plutella xylostella; assay: Joint toxicity of I-72 + tetraniliprole, Example 58, Table 58; settings: Plutella xylostella, foliar; A = compound I-72, B = tetraniliprole; cabbage leaf dipping; 72 hours; read-out: LC50
Protocol: Test target: 2nd-instar larvae of Plutella xylostella.
as §1
Experimental method: first, cabbage leaves were selected and dipped in the prepared pesticide solution for 10 s in the order from low dosage to high dosage according to the experimental design. After natural air-drying in the shade, they were placed in a 9-cm-diameter Petri dish with filter paper, and uniform and healthy test insects were introduced, with 10 insects for each treatment and 3 replicates for each treatment. In addition, a blank control was set up.
as §3, with “72” for “96”

[5] = system: Aphis gossypii Glover nymphs; assay: Joint toxicity of I-72 + nitenpyram, Example 67, Table 67; settings: A = compound I-72, B = nitenpyram, cotton leaf spraying, 48 hours, read-out: LC50
Protocol: Test target: Aphis gossypii Glover nymphs, a sensitive strain reared indoors.
as §1
as §2, with “uniform” for “neat”, “Aphis gossypii” for “Bemisia tabaci (Gennadius) nymphs”, “selected,” for “selected and made into leaf disks,”, “30-40” for “20”, “leaf.” for “leaf disk.”
as §3, with “48” for “96”

SMILES: CN(C(=O)c1ccc2c(c1)OC(F)(F)O2)c1cccc(C(=O)Nc2c(Br)cc(C(F)(C(F)(F)F)C(F)(F)F)cc2OC(F)F)c1F [Compound I-72]
- LC50 [1]: 11.9 µg/mL
- LC50 [2]: 75.2 µg/mL (≈ 101 µM)
- LC50 [3]: 253 µg/mL
- LC50 [4]: 0.0888 µg/mL
- LC50 [5]: 3 µg/mL
